The values below come from patent publication US20040039060A1, “Inhibitor for enzyme having two divalent metal ions as active centers” (priority 2000, published 2004).

One data set concerns the target HIV-1 integrase (Human immunodeficiency virus type 1 group M subtype B, UniProt P04585). Nature of the data set: HIV-1 integrase inhibition assay (microtiter plate, immobilised substrate DNA, Dig-labelled target DNA, OD 405 nm). It counts as biochemical. The procedure:
Substrate DNA and target DNA, which sequences were indicated below, were synthesized by Amersham Pharmacia Biotech and dissolved in KTE buffer (composition: 100 mM KCl, 1 mM EDTA, 10 mM Tris-HCl (pH 7.6)) at concentration of 2 pmol/μl and 5 pmol/μl, respectively. The DNA solutions were annealed with each complement by slowly cooling after heating.
Streptavidin, obtained from Vector Laboratories, was dissolved in 0.1 M carbonate buffer (composition: 90 mM Na2CO3, 10 mM NaHCO3) at concentration of 40 μg/ml. After coating each well of microtiter plates (obtained from NUNC) with 50 μl of the above solution at 4° C. overnight, each well was washed twice with PBS (composition: 13.7 mM NaCl, 0.27 mM KCl, 0.43 mM Na2HPO4, 0.14 mM KH2PO4) and blocked with 300 μl of 1% skim milk in PBS for 30 min. Additionally, each well was washed twice with PBS and added 50 μl of substrate DNA solution (2 pmol/μl). The microtiter plates were kept at room temperature for 30 min. Then, each well was washed twice with PBS and once with H2O.
Subsequently, in the each well prepared above were added 45 μl of the reaction buffer prepared from 12 μl of the buffer (composition: 150 mM MOPS (pH 7.2), 75 mM MnCl2, 50 mM 2-mercaptoethanol, 25% glycerol, 500 μg/ml bovine serum albumin-fraction V), 1 μl of target DNA (5 pmol/μl), and 32 μl of the distilled water. Additionally, 6 μl of either a test compound in DMSO or DMSO for positive control(PC) was mixed with the above reaction buffer, then 9 μl of an integrase solution (30 pmol) was added and mixed well. In the well of negative control (NC) was added 9 μl of the integrase dilution buffer (composition: 20 mM MOPS (pH7.2), 400 mM potassium glutamate, 1 mM EDTA, 0.1% NP-40, 20% glycerol, 1 mM DTT, 4M urea).
The microtiter plates were incubated at 30° C. for 1 hour. The reaction solution was removed and each well was washed twice with PBS. Subsequently, each well of the microtiter plates was filled with 100 μl of anti-digoxigenin antibody labeled with alkaline phosphatase (Sheep Fab fragment: obtained from Boehringer) and incubated at 30° C. for 1 hour. Then, each well was washed twice with 0.05% Tween20 in PBS and once with PBS. Next, 150 μl of the Alkaline phosphatase reaction buffer (composition: 10 mM p-Nitrophenylphosphate (obtained from Vector Laboratories), 5 mM MgCl2, 100 mM NaCl, 100 mM Tris-HCl (pH 9.5)) was added in each well. […] The optical density (OD) at 405 nm of each well was measured and the percent inhibition was determined by the following expression.
The percent inhibition (%)=100[1-{(C abs.−NC abs.)/(PC abs.−NC abs.)}]
When the percent inhibition (%) is X % at the concentration of x μg/ml and the percent inhibition (%) is Y % at the concentration of y μg/ml, one of which is more than 50% and the other is less than 50%, IC50 can be determined by the following expression.
IC50(μg/ml)=x-{(X-50)(x-y)/(X-Y)}
Compound No. in the Table 1 is the same as compound No. of the above example.

Structures are written as SMILES.

One may read the IC50 as the concentration needed to halve the response being measured. For the molecule `OC(=Cc1cc(CCc2ccccc2)ncn1)c1nccs1` [Compound C-4], half-maximal inhibition on HIV-1 integrase (IC50) required 1.94 µM. What is called melting point is the temperature, or range, at which the solid turns liquid. Turning to `O=C(O)c1ccnc(C(O)=CC(=O)c2ccc(Cc3ccc(F)cc3)o2)c1` [Compound A-5, 3(4-Carboxypyridin-2-yl)-1-[5-(4-fluorobenzyl)furan-2-yl]-3-hydroxy-propenone], the melting point is 208 to 210 °C. Further, the IC50 at HIV-1 integrase is 0.191 µM. Take `Cc1cc(C(O)=CC(=O)c2ccc(Cc3ccc(F)cc3)o2)no1` [Compound A-10, 1-[5-(4-Fluorobenzyl)furan-2-yl]-3-hydroxy-3-(5-methylisoxazol-3-yl)-propenone]: the melting point was 95 to 97 °C. Moreover, the IC50 against HIV-1 integrase was 5.5 µM.

In turn, `O=C(O)C(O)=Cc1cnc(CCc2ccccc2)cn1` [Compound C-7] had an IC50 against HIV-1 integrase of 2.26 µM. The molecule `O=C(C=C(O)c1ncccc1C(=O)O)c1ccc(Cc2ccc(F)cc2)o1` [Compound B-9, 3-(3-Carboxypyridin-2-yl)-1-[5-(4-fluorobenzyl)furan-2-yl]-3-hydroxy-propenone] had a melting point of 127 to 130 °C. In addition, the IC50 at HIV-1 integrase was over 272 µM. For `COC(=O)C(=O)c1oc2ccc(OCc3ccc(F)cc3)cc2c1O` [Compound E-1, [5-(4-Fluoro-benzyloxy)-3-hydroxy-benzofuran-2-yl]-2-oxo-acetic acid methyl ester], on HIV-1 integrase, 7.55 µM corresponded to half-maximal inhibition (IC50). At HIV-1 integrase, `OC(=Cc1cc(CCc2ccccc2)ncn1)c1nnn[nH]1` [Compound C-2] showed an IC50 of 4.76 µM. `O=C(C=C(O)c1ncccn1)c1ccc(Cc2ccc(F)cc2)o1` [Compound A-2, 1-[5-(4-Fluorobenzyl)furan-2-yl]-3-hydroxy-3-(pyrimidin-2-yl)-propenone] gave a melting point of 77 to 80 °C. At HIV-1 integrase, the IC50 was 0.247 µM. On the same counts, the results for `O=C(C=C(O)c1cc2ccccc2cn1)c1ccc(Cc2ccc(F)cc2)o1` [Compound A-7, 1-[5-(4-Fluorobenzyl)furan-2-yl]-3-hydroxy-3-(isoquinolin-3-yl)-propenone] are 154 to 156 °C and 3.75 µM. Regarding `O=C(C=C(O)c1ccon1)c1ccc(Cc2ccc(F)cc2)o1` [Compound A-9, 1-[5-(4-Fluorobenzyl)furan-2-yl]-3-hydroxy-3-(isoxazol-3-yl)-propenone], the melting point fell in the range of 50 to 52 °C. Besides, at HIV-1 integrase, inhibition was half-maximal at 10.5 µM (IC50). In turn, `O=C(/C=C(\O)c1ccc[nH]1)c1ccc(Cc2ccc(F)cc2)o1` [Compound B-6, 1-[5-(4-Fluorobenzyl)furan-2-yl]-3-hydroxy-3-(pyrrol-2-yl)-propenone] had an IC50 against HIV-1 integrase of over 321 µM. Same read-out and setting: in the case of `Cc1cc(C(O)=Cc2cc(CCc3ccccc3)ncn2)no1` [Compound C-6] it was 2.73 µM. In turn, `O=C(C=C(O)c1cnccn1)c1ccc(Cc2ccc(F)cc2)o1` [Compound A-3, 1-[5-(4-Fluorobenzyl)furan-2-yl]-3-hydroxy-3-(pyrazin-2-yl)-propenone] had a melting point of 127 to 129 °C. Further, half-maximal inhibition at HIV-1 integrase (IC50) was put at 1.85 µM. Regarding `OC(=Cc1cc(CCc2ccccc2)ncn1)c1cnccn1` [Compound C-5], the concentration for half-maximal inhibition (IC50) on HIV-1 integrase was 5.26 µM. `O=C(O)C(=O)c1oc2ccc(OCc3ccc(F)cc3)cc2c1O` [Compound E-2, [5-(4-Fluoro-benzyloxy)-3-hydroxy-benzofuran-2-yl]-2-oxo-acetic acid] gave an IC50 on HIV-1 integrase of 7.87 µM. For the molecule `O=C(C=C(O)c1ccncc1)c1ccc(Cc2ccc(F)cc2)o1` [Compound B-8, 1-[5-(4-Fluorobenzyl)furan-2-yl]-3-hydroxy-3-(pyridin-4-yl)-propenone], the melting point was 90 to 92 °C. The IC50 against HIV-1 integrase is over 309 µM. Molecule `COC(=O)C(=O)c1oc2ccc(Cc3ccc(F)cc3)cc2c1O` [Compound E-5, [5-(4-Fluoro-benzyl)-3-hydroxy-benzofuran-2-yl]-2-oxo-acetic acid methyl ester] returned a melting point of 128 to 130 °C. `O=C(C=C(O)c1ccoc1)c1ccc(Cc2ccc(F)cc2)o1` [Compound B-2, 1-[5-(4-Fluorobenzyl)furan-2-yl]-3-(furan-37yl)-3-hydroxy-propenone] had a melting point of 53 to 55 °C. Besides, on HIV-1 integrase, the IC50 is over 320 µM. On the same counts, the results for `O=C(O)c1ccc(C(O)=CC(=O)c2ccc(Cc3ccc(F)cc3)o2)nc1` [Compound A-6, 3-(5-Carboxypyridin-2-yl)-1-[5-(4-fluorobenzyl)furan-2-yl]-3-hydroxy-propenone] are 196 to 198 °C and 0.272 µM. In turn, `O=C(O)C(O)Cc1cc(CCc2ccccc2)ncn1` [Compound D-3] displayed an IC50 against HIV-1 integrase of over 367 µM. In turn, `Cn1cccc1C(O)=CC(=O)c1ccc(Cc2ccc(F)cc2)o1` [Compound B-5, 1-[5-(4-Fluorobenzyl)furan-2-yl]-3-hydroxy-3-(1-methylpyrrol-2-yl)-propenone] showed a melting point of 75 to 76 °C. Also, the IC50 at HIV-1 integrase is over 307 µM. For `O=C(C=C(O)c1nn[nH]n1)c1ccc(Cc2ccc(F)cc2)o1` [Compound A-1, 1-[5-(4-Fluorobenzyl)furan-2-yl]3-hydroxy-3-(2H-tetrazol-5-yl)-propenone], in that order: 121 to 123 °C and 1.27 µM. In turn, `O=C(C=C(O)c1ccccn1)c1ccc(Cc2ccc(F)cc2)o1` [Compound A-4, 1-[5-(4-Fluorobenzyl)furan-2-yl]-3-hydroxy-3-(pyridin-2-yl)-propenone] displayed a melting point of 84 to 85 °C. Further, the midpoint of inhibition on HIV-1 integrase, the IC50, lay at 0.619 µM.

Turning to `OC(=Cc1cc(CCc2ccccc2)ncn1)c1ncn[nH]1` [Compound C-3], on HIV-1 integrase, half-maximal inhibition (IC50) required 1.7 µM. As for `O=C(C=C(O)c1ccco1)c1ccc(Cc2ccc(F)cc2)o1` [Compound B-1, 1-[5-(4-Fluorobenzyl)furan-2-yl]-3-(furan-2-yl)-3-hydroxy-propenone], the melting point was 44 to 45 °C. This molecule showed an IC50 on HIV-1 integrase of over 320 µM. Consider `O=C(c1ccccn1)c1oc2ccc(Cc3ccc(F)cc3)cc2c1O` [Compound E-8, 1-[5-(4-Fluoro-benzyl)-3-hydroxy-benzofuran-2-yl]-1-pyridine-2-yl-methanone], for which the melting point is 258 °C (dec.). With `Cc1cc(C(O)=CC(=O)c2ccc(Cc3ccc(F)cc3)o2)on1` [Compound B-7, 1-[5-(4-Fluorobenzyl)furan-2-yl]-3-hydroxy-3-(3-methylisoxazol-5-yl)-propenone], the melting point lay in the range of 106 to 107 °C. Also, the IC50 against HIV-1 integrase was over 306 µM. With `O=C(C=C(O)c1cccnc1)c1ccc(Cc2ccc(F)cc2)o1` [Compound B-4, 1-[5-(4-Fluorobenzyl)furan-2-yl]-3-hydroxy-3-(pyridin-3-yl)-propenone], the melting point is 53 to 54 °C. Further, on HIV-1 integrase, the IC50 was over 309 µM.

On HIV-1 integrase, `Cc1cc(C(O)=Cc2cc(CCc3ccccc3)ncn2)on1` [Compound D-1] showed an IC50 of over 325 µM. On to `O=C(O)/C(O)=C/c1ccc(OCc2ccccc2)cn1` [Compound C-8], for which the IC50 against HIV-1 integrase was 1.7 µM. `O=C(C=C(O)c1cccs1)c1ccc(Cc2ccc(F)cc2)o1` [Compound B-3, 1-[5-(4-Fluorobenzyl)furan-2-yl]-3-(thiophen-2-yl)-3-hydroxy-propenone]: the melting point fell in the range of 50 to 52 °C. This molecule gave an IC50 on HIV-1 integrase of over 305 µM. For the molecule `O=C(O)C(=O)c1oc2ccc(Cc3ccc(F)cc3)cc2c1O` [Compound E-6, [5-(4-Fluorobenzyl)-3-hydroxy-benzofuran-2-yl]-2-oxo-acetic acid], the melting point is 207 to 210 °C.
